Laboratory results from US20260008811A1, “BIOACTIVE PEPTIDES AND COMPOSITIONS COMPRISING THEM” (ESPIKEM S.R.L., priority 2019, published 2026).
Non-standard residues stand in square brackets, D forms with d.

Columns and labels:
[1] = test system: Type I procollagen; assay: Western blot of type I procollagen / soluble type I collagen in fibroblast cultures after 72 hours of treatment; assay type: cell-based, human; conditions: fibroblasts, peptide 20 mM, no FBS, compared with TGF-β1, SA1III, Peptide 1, Peptide 2 (FIG. 1)
From the text: Neonatal human dermal fibroblasts (NHDF) have been obtained from Lonza. Cultures of adult dermal fibroblasts have been prepared from cutaneous skin biopsies of healthy donors having different ages, as described in Pani et al. J. Alzheimer's Dis. (2009) 18:829-41, C6 ([…]), C3 (person) and C12 (person). A written informed consent to use these dermal cells was obtained from all the donor subjects involved, according to the Guidelines indicated by the Ethics Committee of the Careggi University Hospital (Florence, Italy) and by the Helsinki Declaration of 1975, as reviewed in the 1983. All cell cultures have been subjected to a similar number of steps, from 6 to 9, at the beginning of the experiments, and were preserved in the modified Dulbecco Eagle culture medium (DMEM, Lonza) added with FBS 10% (Gibco), 100 units/ml of penicillin G, 0.05 mg/ml of streptomycin and glutamine 2 mM (PAN-Biotech GmbH), at 37° C. in a humidified incubator containing 5% of CO2.
The cells were seeded in 12-wells plates (30000 cells per well) and treated the day after with the peptide AAT11RI (20 mM). […]
All treatments have been carried out in the absence of FBS to avoid interferences in the electrophoretic migration. […] The protein content in the lysates was measured using the Bio-Rad DC protein assay kit. […]

[2] = test system: extracellular collagen; conditions: fibroblasts obtained from subjects of various ages; cited from earlier work

Ac-DAsn-DVal-DVal-DLys-NH2 (Ac-[dN][dV][dV][dK]-NH2) [AAT11RI]
ability to increase the concentration of procollagen in vitro [1]: surprisingly higher than all the other products tested

SA1-III: C-terminal peptide fragment 409-418 of the serpin A1 molecule, positive control (MGKVVNPTQK)
levels of extracellular collagen [2]: increased levels of extracellular collagen
